We go through two compounds from patent US7432045B2 (priority 2003, dated 2008).

For data set [1], the system named is HSV-1 KOS mutant hrR3. Conditions: read-out: post-entry effects IC50; peptide added after citrate treatment, 8 h.
Data set [2] deals with HSV-1 KOS mutant hrR3. Description: Inactivation of pre-adsorbed virus (virus inactivation). In kind it is cell-based. To be noted: 33° C.; read-out: Virus Inactivation IC50 (pre-adsorbed virus). How it is done: (§1) Two assays were used to assess the ability of the TAT peptides to inhibit infection of Vero cells with the hrR3 virus. In both assays, the virus was preadsorbed to cells at 4° C. and entry was initiated in the presence of peptide by shifting the cultures to a permissive temperature (30-37° C.). One hour later, the peptide was rinsed off. The entry blocking activity was measured in half of the cultures, in which any extracellular virus remaining after the peptide treatment was inactivated with low pH citrate buffer. The rest of the cultures were exposed to PBS instead of citrate buffer and used to measure virus inactivation. Virus inactivation depended on persistent effects of the peptide lasting for a period of eight hours. At the end of that period, all cultures were fixed and infected cells were detected by staining with X-gal.
(§2) Virus (m.o.i.=0.025) was preadsorbed to Vero cells for 1 h at 4° C. before cultures were exposed to TAT-C (FIG. 15A), bTAT-9X (FIG. 15B), or n50,51TAT-C (FIGS. 15C, 15D) for 1 h at 33 (FIGS. 15A, 15B), 31 (FIG. 15C), or 37° C. (FIG. 15D). […] Inhibition of entry was measured in the citrate-treated cultures, in which any remaining external virus was inactivated immediately following exposure to peptide (●). Persistent virus inactivation lasting, at least in part, for the 8 h period following exposure to peptide, was measured in the PBS-treated cultures (◯). The IC50s measured in these experiments are included in Table 5.

A further data set is described as follows: in vitro. Conditions: African green monkey.
The subject of data set [3] is HSV-1 KOS mutant hrR3. Description: LacZ+ virus (hrR3) entry assay with pre-adsorbed virus (entry block). Conditions: 33° C.; read-out: Entry Block IC50. In kind it is cell-based. How it is done:
LacZ^+ virus (hrR3) entry assay: Confluent Vero cell cultures in 96-well microtiter plates were switched to Hepes-buffered serum-free DMEM, cooled on ice to 4° C. for 30 min, and infected with hrR3 for 1 hour at 4° C. in 40 μL of medium. Unattached virus was removed by rinsing with ice-cold medium. Treatments with antiviral peptide SEQ ID NO:1, referred to as EB, or a control peptide which comprised the RRKK tetra-peptide (SEQ ID NO:16) attached to a scrambled version of the membrane transiting peptide RRKKLAALPLVLAAPLAVLA (SEQ ID NO:17) (referred to as EBX), or mock-treatments with peptide-free medium were carried out in serum-free DMEM as indicated. Virus entry was initiated by transferring cultures to 37° C. To inactivate any remaining extracellular virus, cultures were rinsed with PBS and exposed to low pH citrate buffer (40 mM citric acid, 10 mM KCl, 135 mM NaCl, pH 3.0, according to Highlander et al., J. Virol. 61:3356 (1987), for 1 min at 23° C. The citrate was rinsed off with PBS and cultures were maintained in serum-supplemented DMEM until they were fixed with 0.5% gluteraldehyde in 5×PBS for 30 min at 23° C., stained for β-galactosidase activity for 1 hour or overnight at 23° C. with X-gal (Fisher Biotech; BP1615-1) in 1×PBS containing […], 1.3 mM K4Fe(CN)6, and 1.3 mM K3Fe(CN)6, and scored for the presence of blue […] cells.
In these studies, the hrR3 virus was pre-adsorbed to cells for 1 hour at 4° C. before ice cold 25 μM EB or EBX were added in serum-free DMEM. After an additional 1 hour at 4° C., cultures were shifted to 37° C. to initiate virus entry. At 15 min intervals following the temperature shift, any virus remaining outside the cells was inactivated by washing the cultures with low pH citrate buffer. Cultures were then rinsed and returned to peptide-free serum-supplemented DMEM until they were fixed and stained for β-galactosidase 8 hours after the temperature shift.
as §1, §2

Read-outs that look alike come from different tables or passages of the source. Peptide text beside a SMILES is read from it. * marks the point of attachment. Biotin = O=C1N[C@H]2[C@H](CS[C@H]2CCCCC(=O)*)N1; Ahx = NCCCCCC(=O)O

The term IC50 denotes the concentration needed to halve the response being measured. `CC(C)C[C@H](NC(=O)CCCCCNC(=O)CCCC[C@@H]1SC[C@@H]2NC(=O)N[C@@H]21)C(=O)N[C@H](C(=O)N[C@@H](CC(C)C)C(=O)N[C@@H](C)C(=O)N[C@@H](C)C(=O)N1CCC[C@H]1C(=O)N[C@@H](CC(C)C)C(=O)N[C@@H](C)C(=O)N[C@H](C(=O)N[C@@H](CC(C)C)C(=O)N[C@@H](C)C(=O)N1CCC[C@H]1C(=O)NCC(=O)N[C@@H](CCCNC(=N)N)C(=O)N[C@@H](CCCCN)C(=O)N[C@@H](CCCCN)C(=O)N[C@@H](CCCNC(=N)N)C(=O)N[C@@H](CCCNC(=N)N)C(=O)N[C@@H](CCC(N)=O)C(=O)N[C@@H](CCCNC(=N)N)C(=O)N[C@@H](CCCNC(=N)N)C(=O)N[C@@H](CCCNC(=N)N)C(=O)N[C@@H](CS)C(N)=O)C(C)C)C(C)C` [b12TAT-C] ({Biotin-Ahx}-LVLAAPLAVLAPGRKKRRQRRRC-NH2): the IC50 is 100 µM with HSV-1 KOS mutant hrR3 [1], 11 µM with HSV-1 KOS mutant hrR3 [2], roughly 200 µM in the data set “in vitro” and 3.3 µM in the data set on HSV-1 KOS mutant hrR3 [3].
Take `CC(C)C[C@H](NC(=O)[C@H](CC(=O)O)NC(=O)[C@H](CC(N)=O)NC(=O)[C@@H](NC(=O)[C@@H](NC(=O)[C@H](C)NC(=O)CNC(=O)[C@H](C)NC(=O)[C@H](Cc1ccc(O)cc1)NC(=O)CNC(=O)[C@@H]1CCCN1C(=O)[C@H](CCCNC(=N)N)NC(=O)[C@H](CCCNC(=N)N)NC(=O)[C@H](CCCNC(=N)N)NC(=O)[C@H](CCC(N)=O)NC(=O)[C@H](CCCNC(=N)N)NC(=O)[C@H](CCCNC(=N)N)NC(=O)[C@H](CCCCN)NC(=O)[C@H](CCCCN)NC(=O)[C@H](CCCNC(=N)N)NC(=O)CNC(=O)[C@H](Cc1ccc(O)cc1)NC(=O)CCCCCNC(=O)CCCC[C@@H]1SC[C@@H]2NC(=O)N[C@@H]21)C(C)C)C(C)C)C(=O)O` [bTAT-9, b - YGRKKRRQRRR-9] ({Biotin-Ahx}-YGRKKRRQRRRPGYAGAVVNDL-OH): the IC50 is 210 µM in the data set with HSV-1 KOS mutant hrR3 [1], 110 µM with HSV-1 KOS mutant hrR3 [2], roughly 200 µM in the data set “in vitro” and 2.1 µM in the data set with HSV-1 KOS mutant hrR3 [3].
